From patent US8921368B2, “Pyrrolopyridazine JAK3 inhibitors and their use for the treatment of inflammatory and autoimmune diseases” (Bristol-Myers Squibb Company, priority 2011, dated 2014)

Columns and labels:
JAK3 = JAK3 (Homo sapiens (Human), UniProt P52333); experiment: JAK3 Kinase Assay (Caliper / Filter protocols); assay type: biochemical; details: JAK3 kinase inhibition; ATP 8 μM; read-out: LLE_JAK3_FB (IC50)
Procedure: JAK3 Kinase Assay Protocol (Caliper)
The assay reactions were performed in U-bottom 384-well plates. […] The reaction was initiated by the combination of GST-JAK3 enzyme with substrates and test compounds. The reactions were incubated at room temperature for 3 hours and terminated by adding 60 μl of 35 mM EDTA to each sample. […] Compounds were dissolved at 10 mM in dimethylsulfoxide (DMSO) and evaluated at eleven concentrations. IC50 values were derived by non-linear regression analysis.
JAK3 Kinase Assay Protocol (Filter)
Kinase reactions consisted of 5 ng of JAK3 enzyme, 30 uM CSKtide substrate, 0.2 μCi ^33P γ-ATP, 8 μM ATP in 30 μl kinase buffer (50 mM Hepes, pH 8.0, 10 mM MgCl2, 1 mM EGTA, 2 mM DTT). Reactions were incubated for 30 minutes at room temperature and stopped by the addition of cold trichloroacetic acid (TCA) to a final concentration of 15%. TCA precipitates were collected onto 384 well phosphocellulose filters (Millipore) using a Platemate to transfer the reaction mixture, washed on an EMBLA plate washer and the filters were quantitated using a TopCount 384-well liquid scintillation counter. […] Compounds were dissolved at 10 mM in dimethylsulfoxide (DMSO) and evaluated at six concentrations, each in triplicate. The final concentration of DMSO in the assay equaled 2%. IC50 values were derived by non-linear regression analysis.

JAK1 = JAK1 (Homo sapiens (Human), UniProt P23458); experiment: JAK1 Kinase Assay Protocol; assay type: biochemical; details: GST-JAK1; ATP 100 μM; Caliper LabChip; read-out: LLE_JAK1 (IC50)
Procedure: JAK1 Kinase Assay Protocol
The assay reactions were performed in U-bottom 384-well plates. The final assay volume was 30 μl prepared from 15 μl additions of enzyme and substrates (fluoresceinated peptide and ATP) and test compounds in assay buffer (20 mM HEPES pH 7.4, 10 mM MgCl2, 25 mM beta-glycerol phosphate, 0.015% Brij35 and 4 mM DTT). The reaction was initiated by the combination of GST-JAK1 enzyme with substrates and test compounds. The reactions were incubated at room temperature for 3 hours and terminated by adding 60 μl of 35 mM EDTA to each sample. […] The final concentration of reagents in the assays was: ATP, 100 μM; fluoresceinated peptide, 1.5 μM; GST-JAK1, 12.5 nM; and DMSO, 1.6%. […] Compounds were dissolved at 10 mM in dimethylsulfoxide (DMSO) and evaluated at eleven concentrations. IC50 values were derived by non-linear regression analysis.

Chain of JAK3 (P52333 whole entry): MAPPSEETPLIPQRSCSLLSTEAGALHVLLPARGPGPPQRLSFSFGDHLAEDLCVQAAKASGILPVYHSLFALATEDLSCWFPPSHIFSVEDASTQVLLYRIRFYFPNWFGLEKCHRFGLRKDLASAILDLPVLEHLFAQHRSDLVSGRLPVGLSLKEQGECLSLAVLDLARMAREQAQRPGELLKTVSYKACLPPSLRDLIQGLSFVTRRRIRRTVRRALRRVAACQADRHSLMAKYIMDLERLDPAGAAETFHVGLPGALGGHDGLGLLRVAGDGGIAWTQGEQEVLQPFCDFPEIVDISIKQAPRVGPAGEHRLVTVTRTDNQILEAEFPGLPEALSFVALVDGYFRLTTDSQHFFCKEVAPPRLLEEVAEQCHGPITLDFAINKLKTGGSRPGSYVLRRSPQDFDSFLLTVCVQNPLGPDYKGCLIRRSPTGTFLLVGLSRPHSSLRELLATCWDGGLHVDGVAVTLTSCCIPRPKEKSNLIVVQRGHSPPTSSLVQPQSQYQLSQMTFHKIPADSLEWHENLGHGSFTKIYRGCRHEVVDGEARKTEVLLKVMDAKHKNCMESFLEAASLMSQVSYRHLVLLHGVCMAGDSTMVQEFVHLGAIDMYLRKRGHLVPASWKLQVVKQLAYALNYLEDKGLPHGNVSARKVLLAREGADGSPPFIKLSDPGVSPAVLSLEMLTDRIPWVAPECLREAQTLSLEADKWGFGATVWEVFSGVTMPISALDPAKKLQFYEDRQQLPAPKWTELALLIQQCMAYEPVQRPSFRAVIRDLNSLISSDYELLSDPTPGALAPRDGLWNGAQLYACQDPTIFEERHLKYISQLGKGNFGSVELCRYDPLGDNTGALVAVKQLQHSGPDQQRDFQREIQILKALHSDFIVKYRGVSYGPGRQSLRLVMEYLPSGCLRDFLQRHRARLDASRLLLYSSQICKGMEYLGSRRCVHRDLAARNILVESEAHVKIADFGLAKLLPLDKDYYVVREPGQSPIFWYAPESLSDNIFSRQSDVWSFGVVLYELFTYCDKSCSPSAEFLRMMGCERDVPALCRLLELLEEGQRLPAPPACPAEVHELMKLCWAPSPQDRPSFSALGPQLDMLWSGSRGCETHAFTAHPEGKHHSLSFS
Chain of JAK1 (P23458 whole entry): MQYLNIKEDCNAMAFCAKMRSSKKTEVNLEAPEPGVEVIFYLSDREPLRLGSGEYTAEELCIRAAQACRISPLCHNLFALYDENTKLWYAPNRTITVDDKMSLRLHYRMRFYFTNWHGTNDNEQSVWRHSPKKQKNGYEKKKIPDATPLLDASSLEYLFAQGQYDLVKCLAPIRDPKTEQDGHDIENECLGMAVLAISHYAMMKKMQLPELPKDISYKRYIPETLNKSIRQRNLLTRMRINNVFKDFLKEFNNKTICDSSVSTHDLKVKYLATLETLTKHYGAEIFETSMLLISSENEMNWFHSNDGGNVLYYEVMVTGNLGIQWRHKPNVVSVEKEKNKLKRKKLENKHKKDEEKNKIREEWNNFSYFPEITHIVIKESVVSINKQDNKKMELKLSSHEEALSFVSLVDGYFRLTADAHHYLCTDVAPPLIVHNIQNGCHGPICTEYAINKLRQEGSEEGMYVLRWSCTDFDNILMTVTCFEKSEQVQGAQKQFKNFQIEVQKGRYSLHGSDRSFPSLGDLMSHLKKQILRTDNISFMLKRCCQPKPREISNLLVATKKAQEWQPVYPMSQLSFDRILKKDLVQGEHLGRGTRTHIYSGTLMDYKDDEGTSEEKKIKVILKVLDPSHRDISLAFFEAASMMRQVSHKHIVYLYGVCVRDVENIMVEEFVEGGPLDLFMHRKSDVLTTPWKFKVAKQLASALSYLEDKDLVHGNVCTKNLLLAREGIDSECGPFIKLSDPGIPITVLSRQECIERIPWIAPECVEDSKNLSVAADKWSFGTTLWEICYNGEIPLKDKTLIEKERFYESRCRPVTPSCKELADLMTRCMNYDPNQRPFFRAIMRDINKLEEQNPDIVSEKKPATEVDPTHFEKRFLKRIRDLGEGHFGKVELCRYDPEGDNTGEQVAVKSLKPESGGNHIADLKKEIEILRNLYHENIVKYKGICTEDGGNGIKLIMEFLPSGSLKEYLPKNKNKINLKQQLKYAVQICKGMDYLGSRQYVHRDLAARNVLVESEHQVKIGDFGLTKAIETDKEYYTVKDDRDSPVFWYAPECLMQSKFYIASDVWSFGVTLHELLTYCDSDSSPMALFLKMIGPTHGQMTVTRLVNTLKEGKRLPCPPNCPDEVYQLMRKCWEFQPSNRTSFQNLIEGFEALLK

SMILES	IC50 (JAK3) [nM]	IC50 (JAK1) [nM]
C[C@]1(O)CC[C@@H](Nc2c(C(N)=O)cnn3cc(-c4cncnc4N)cc23)CC1 [Example 316, 6-(4-amino-5-pyrimidinyl)-4-((cis-4-hydroxy-4-methylcyclohexyl)amino)pyrrolo[1,2-b]pyridazine-3-carboxamide]	11	37.3
COc1cccc(-c2cc3c(NC4C5CC6CC4CC(O)(C6)C5)c(C(N)=O)cnn3c2)c1 (stereo not shown) [Example 176, 4-((5-hydroxyadamantan-2-yl)amino)-6-(3-methoxyphenyl)pyrrolo [1,2-b]pyridazine-3-carboxamide]	8.9	–
Cc1ccc(-c2cc3c(NC4C5CC6CC4CC(O)(C6)C5)c(C(N)=O)cnn3c2)cc1 (stereo not shown) [Example 187, 4-((5-hydroxyadamantan-2-yl)amino)-6-(4-methylphenyl)pyrrolo [1,2-b]pyridazine-3-carboxamide]	–	63.4
COc1ccc(S(=O)(=O)Nc2cc3c(N[C@@H]4CC[C@@](C)(O)C4(C)C)c(C(N)=O)cnn3c2)cc1 (racemic) [Example 24]	34.2	–
CC(=O)Nc1ccccc1-c1cc2c(N[C@@H]3CC[C@](C)(N)C3(C)C)c(C(N)=O)cnn2c1 [Example 257, 6-(2-acetamidophenyl)-4-(((1R,3S)-3-amino-2,2,3-trimethylcyclopentyl)amino)pyrrolo[1,2-b]pyridazine-3-carboxamide]	36.9	30
CC1(C)[C@H](Nc2c(C(N)=O)cnn3cc(N4CCC4=O)cc23)CC[C@]1(C)N [Example 332]	8.8	75.7
CC(C)c1ccccc1-c1cc2c(N[C@@H]3CCC[C@]3(C)F)c(C(N)=O)cnn2c1 (racemic) [Example 60]	136	253
Cc1cccc(C)c1-c1cc2c(NC3C4CC5CC3CC(O)(C5)C4)c(C(N)=O)cnn2c1 (stereo not shown) [Example 177, 6-(2,6-dimethylphenyl)-4-((5-hydroxyadamantan-2-yl)amino)pyrrolo [1,2-b]pyridazine-3-carboxamide]	524	–
COc1ncc(-c2cc3c(N[C@@H]4CC[C@](C)(N)C4(C)C)c(C(N)=O)cnn3c2)cn1 [Example 278, 4-(((1R,3S)-3-amino-2,2,3-trimethylcyclopentyl)amino)-6-(2-methoxy-5-pyrimidinyl)pyrrolo[1,2-b]pyridazine-3-carboxamide]	8.4	25.1
CC1(C)[C@H](Nc2c(C(N)=O)cnn3cc(-c4ccc(N5CCCC5)nc4)cc23)CC[C@]1(C)N [Example 213, 4-(((1R,3S)-3-amino-2,2,3-trimethylcyclopentyl)amino)-6-(6-(1-pyrrolidinyl)-3-pyridinyl)pyrrolo[1,2-b]pyridazine-3-carboxamide]	9.5	17.3
CC1(C)[C@H](Nc2c(C(N)=O)cnn3cc(NS(=O)(=O)c4ccccc4)cc23)CC[C@@]1(C)O (racemic) [Example 22]	22.1	239
Cn1nccc1-c1cc2c(NC3C4CC5CC3CC(O)(C5)C4)c(C(N)=O)cnn2c1 (stereo not shown) [Example 185, 4-((5-hydroxyadamantan-2-yl)amino)-6-(1-methyl-1H-pyrazol-5-yl) pyrrolo[1,2-b] pyridazine-3-carboxamide]	6.2	–
CC1(C)[C@@H](Nc2c(C(N)=O)cnn3cc(-c4ccc(C#N)cc4)cc23)CC[C@@]1(C)N [Example 112]	9.4	12.7
C[C@]1(O)CC[C@@H](Nc2c(C(N)=O)cnn3cc(-c4cncnc4)cc23)CC1 [Example 168, 4-((cis-4-hydroxy-4-methylcyclohexyl)amino)-6-(5-pyrimidinyl)pyrrolo [1,2-b]pyridazine-3-carboxamide]	17.1	105
CC1(C)[C@H](Nc2c(C(N)=O)cnn3cc(-c4cncc(C(=O)O)c4)cc23)CC[C@]1(C)N [Example 276, 5-(4-(((1R,3S)-3-amino-2,2,3-trimethylcyclopentyl)amino)-3-carbamoylpyrrolo[1,2-b]pyridazin-6-yl)nicotinic acid]	15	35.2
Cn1nccc1-c1cc2c(N[C@H]3CC[C@@](C)(O)CC3)c(C(N)=O)cnn2c1 [Example 162, 4-((4-hydroxy-4-methylcyclohexyl)amino)-6-(1-methyl-1H-pyrazol-5-yl)pyrrolo[1,2-b]pyridazine-3-carboxamide]	62.7	–
C[C@]1(F)CCC[C@H]1Nc1c(C(N)=O)cnn2cc(-c3cncc4ccccc34)cc12 (racemic) [Example 68]	46.4	–

Results, then the compound that gave them:

IC50 (JAK3) [nM]	IC50 (JAK1) [nM]	SMILES
1.6	6.1	C[C@]1(O)CC[C@@H](Nc2c(C(N)=O)cnn3cc(-c4ccc(C#N)cc4)cc23)CC1 [Example 167, 6-(4-cyanophenyl)-4-((cis-4-hydroxy-4-methylcyclohexyl)amino)pyrrolo[1,2-b]pyridazine-3-carboxamide]
4.7	2.1	NC(=O)c1cnn2cc(-c3ccc(F)cc3)cc2c1NC12CC3CC(O)(CC(O)(C3)C1)C2 [Example 298, 4-((3,5-dihydroxyadamantan-1-yl)amino)-6-(4-fluorophenyl)pyrrolo [1,2-b]pyridazine-3-carboxamide]
0.3	1.2	COc1ccc(-c2cc3c(N[C@@H]4CC[C@](C)(C(N)=O)C4(C)C)c(C(N)=O)cnn3c2)cn1 [Example 338, 4-((1R,3S)-3-carbamoyl-2,2,3-trimethylcyclopentylamino)-6-(6-methoxypyridin-3-yl)pyrrolo[1,2-b]pyridazine-3-carboxamide]
1.7	4.3	COc1ccc(-c2cc3c(N[C@@H]4CC[C@](C)(NS(C)(=O)=O)C4(C)C)c(C(N)=O)cnn3c2)cn1 [Example 336, 6-(6-methoxy-3-pyridinyl)-4-(((1R,3S)-2,2,3-trimethyl-3-((methylsulfonyl)amino)cyclopentyl)amino)pyrrolo[1,2-b]pyridazine-3-carboxamide]
0.8	0.6	CN(C)C(=O)c1ccc(-c2cc3c(N[C@@H]4CC[C@](C)(N)C4(C)C)c(C(N)=O)cnn3c2)cc1 [Example 266, 4-(((1R,3S)-3-amino-2,2,3-trimethylcyclopentyl)amino)-6-(4-(dimethylcarbamoyl)phenyl)pyrrolo[1,2-b]pyridazine-3-carboxamide]
1.6	0.7	CC1(C)[C@H](Nc2c(C(N)=O)cnn3cc(-c4ccc(C(=O)NC5CC5)cc4)cc23)CC[C@]1(C)N [Example 221, 4-(((1R,3S)-3-amino-2,2,3-trimethylcyclopentyl)amino)-6-(4-(cyclopropylcarbamoyl)phenyl)pyrrolo[1,2-b] pyridazine-3-carboxamide]
0.5	1.4	C[C@]1(F)CCC[C@H]1Nc1c(C(N)=O)cnn2cc(-c3cccc(C(N)=O)c3)cc12 (racemic) [Example 94]
5.5	4.1	COc1cncc(-c2cc3c(N[C@@H]4CC[C@](C)(N)C4(C)C)c(C(N)=O)cnn3c2)c1 [Example 286, 4-(((1R,3S)-3-amino-2,2,3-trimethylcyclopentyl)amino)-6-(5-methoxy-3-pyridinyl)pyrrolo[1,2-b]pyridazine-3-carboxamide]
1	–	COc1ccccc1-c1cc2c(NC3C4CC5CC3CC(O)(C5)C4)c(C(N)=O)cnn2c1 (stereo not shown) [Example 178, 4-((5-hydroxyadamantan-2-yl)amino)-6-(2-methoxyphenyl)pyrrolo [1,2-b]pyridazine-3-carboxamide]
0.5	2.9	CC1(C)CCC[C@H]1Nc1c(C(N)=O)cnn2cc(-c3ccccc3)cc12 [Example 304, 4-(((1R)-2,2-dimethylcyclopentyl)amino)-6-phenylpyrrolo[1,2-b] pyridazine-3-carboxamide]
0.3	0.7	CC1(C)[C@H](Nc2c(C(N)=O)cnn3cc(-c4ccc(CO)cc4)cc23)CC[C@]1(C)N [Example 271, 4-(((1R,3S)-3-amino-2,2,3-trimethylcyclopentyl)amino)-6-(4-(hydroxymethyl)phenyl) pyrrolo[1,2-b]pyridazine-3-carboxamide]
5.1	17.4	C[C@]1(O)CCCC[C@@H]1Nc1c(C(N)=O)cnn2cc(-c3ccccc3)cc12 (racemic) [Example 314, (+/−)-4-(((1S,2S)-2-hydroxy-2-methylcyclohexyl)amino)-6-phenylpyrrolo[1,2-b]-pyridazine-3-carboxamide]
0.2	1	CC1(C#N)CCCC1Nc1c(C(N)=O)cnn2cc(-c3ccccc3)cc12 (stereo not shown) [Example 123]
